US20240025841A1, “METHOD FOR OBTAINING CRYSTALLINE DIETHYLAMINO HYDROXYBENZOYL HEXYL BENZOATE” (BASF SE, priority 2020, published 2024)

Assay: Equilibrium solubility of (I) in 1-hexanol at different temperatures
Assay type: physicochemical
Conditions: equilibrium solubility in 1-hexanol
Method: The equilibrium solubility of (I) in 1-hexanol at different temperatures was determined using a double jacketed 750 mL crystallizer. A mixture of (I) and 1-hexanol in the crystallizer was heated to a target temperature and the equilibrium condition was allowed to establish at that temperature. Samples from the solid free mother liquor were drawn using a filter frit. The samples were analysed for (I) content.
The results are shown in […].1 and are plotted in FIG. 1.

Q: For CCCCCCOC(=O)c1ccccc1C(=O)c1ccc(N(CC)CC)cc1O [(I), 2-(4′-Diethylamino-2′-hydroxybenzoyl)benzoic acid hexyl ester], which “(I) concentration” value (0 °C) is on record?
A: Its value is 3.8%.

Q: And the “(I) concentration” value (4 °C)?
A: Its value is 4.3%.

Q: What about the “(I) concentration” value (7 °C) of the same compound?
A: The value was 5.4%.

Q: What about the “(I) concentration” value (8 °C) of the same compound?
A: The value was 5.3%.

Q: And the “(I) concentration” value (12 °C)?
A: The value was 6.2%.

Q: What about the “(I) concentration” value (13.7 °C) of the same compound?
A: Its value is 8.6%.

Q: What about the “(I) concentration” value (16 °C) of the same compound?
A: The value was 7.6%.

Q: What about the “(I) concentration” value (20 °C) of the same compound?
A: Its value is 8.8%.

Q: What about the “(I) concentration” value (25 °C) of the same compound?
A: Its value is 12.3%.

Q: And the “(I) concentration” value (28.3 °C)?
A: The value was 17.6%.

Q: And the “(I) concentration” value (30 °C)?
A: The value was 19.0%.

Q: What about the “(I) concentration” value (35 °C) of the same compound?
A: Its value is 40.0%.

Q: And the “(I) concentration” value (−0.9 °C)?
A: The value was 3.4%.
